Tests used:
[1] = system: Human immunodeficiency virus 2; assay: Antiviral activity against HIV-2 ROD infected in human MT4 cells assessed as virus-induced cytopathic effect incubated for 5 days by MTT assay; assay type: functional, organism-based; conditions: Human immunodeficiency virus 2, ROD, MT4, 120 h
[2] = system: Human immunodeficiency virus 1; assay: Antiviral activity against HIV-1 NL4-3 infected in human MT2 cells assessed as reduction in viral replication; assay type: functional, organism-based; conditions: Human immunodeficiency virus 1, NL4-3, MT2
[3] = molecular target: Human immunodeficiency virus type 1 protease (Human immunodeficiency virus 1, UniProt Q72874); assay: Inhibition of HIV-1 protease by fluorescence resonance energy transfer analysis
[4] = molecular target: T1, Human immunodeficiency virus type 1 integrase (Human immunodeficiency virus 1, UniProt Q7ZJM1); assay: Inhibition of HIV-1 integrase strand transfer activity
T1 sequence (Q7ZJM1 whole entry): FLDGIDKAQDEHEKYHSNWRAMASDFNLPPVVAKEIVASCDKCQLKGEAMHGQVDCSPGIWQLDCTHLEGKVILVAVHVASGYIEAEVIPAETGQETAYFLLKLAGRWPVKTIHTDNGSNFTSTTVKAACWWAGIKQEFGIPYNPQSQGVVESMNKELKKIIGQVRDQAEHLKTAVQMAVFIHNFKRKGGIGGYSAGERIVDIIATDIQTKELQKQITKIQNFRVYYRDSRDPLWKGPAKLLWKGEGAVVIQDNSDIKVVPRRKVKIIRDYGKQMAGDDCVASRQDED

[5] = Inhibition of Influenza A virus RdRp
[6] = molecular target: T2, Human immunodeficiency virus type 1 reverse transcriptase (Human immunodeficiency virus 1, UniProt Q72547); assay: Inhibition of HIV-1 reverse transcriptase
[7] = molecular target: Structural capsid protein (Human immunodeficiency virus 1, UniProt Q76129); assay: Inhibition of HIV-1 NL4-3 monomeric capsid protein
Sequence of Structural capsid protein (Q76129 whole entry): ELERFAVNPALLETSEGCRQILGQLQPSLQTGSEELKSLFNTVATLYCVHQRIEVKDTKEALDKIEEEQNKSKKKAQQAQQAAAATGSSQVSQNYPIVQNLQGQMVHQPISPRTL

[8] = molecular target: T1, Human immunodeficiency virus type 1 integrase; assay: Inhibition of HIV-1 NL4-3 integrase
[9] = molecular target: T1, Human immunodeficiency virus type 1 integrase; assay: Inhibition of HIV-1 BAL integrase strand transfer activity
[10] = Half life in human at 40 mg by LC-MS/MS analysis; assay type: ADME; conditions: in vivo
[11] = Tmax in human at 40 mg, po; assay type: ADME; conditions: in vivo
[12] = Tmax in human at 20 mg, po; assay type: ADME; conditions: in vivo
[13] = Cmax in human at 20 mg, po; assay type: ADME; conditions: in vivo
[14] = Half life in human at 20 mg by LC-MS/MS analysis; assay type: ADME; conditions: in vivo
[15] = Cmax in human at 40 mg, po; assay type: ADME; conditions: in vivo
[16] = system: Human immunodeficiency virus 1; assay: Antiviral activity against HIV-1; assay type: functional, organism-based
[17] = system: Human immunodeficiency virus 1; assay: Antiviral activity against HIV1 subtype A clinical isolate UG275; assay type: functional, organism-based; conditions: Human immunodeficiency virus 1, UG275
[18] = molecular target: T2, Human immunodeficiency virus type 1 reverse transcriptase; assay: Inhibition of HIV-1 NL4-3 reverse transcriptase
[19] = molecular target: T2, Human immunodeficiency virus type 1 reverse transcriptase; assay: Inhibition of wild type HIV-1 reverse transcriptase

Work on C#C[C@]1(CO)C=C[C@@H](n2cc(C)c(=O)[nH]c2=O)O1 yielded an EC50 [1] of 30 nM and an EC50 [2] of 450 nM.

Compound C=C(C)[C@@H]1CC[C@]2(NCCN3CCS(=O)(=O)CC3)CC[C@]3(C)[C@H](CC[C@@H]4[C@@]5(C)CC=C(c6ccc(C(=O)O)cc6)C(C)(C)[C@@H]5CC[C@]43C)[C@@H]12 [BMS-955176] has an IC50 [3] greater than 10000 nM, an IC50 [4] greater than 15000 nM and an IC50 [5] greater than 100000 nM. The IC50 [6] was greater than 50000 nM and the IC50 [7] was greater than 50000 nM.

Work on C[C@H]1CO[C@@H]2Cn3cc(C(=O)NCc4ccc(F)cc4F)c(=O)c(O)c3C(=O)N12 [CABOTEGRAVIR] yielded an IC50 [8] of 0.34 nM and an IC50 [9] of 0.22 nM.

Compound CCC(=O)NS(=O)(=O)c1ccc(NC(=O)Cc2ccc(Br)c(Oc3cc(Cl)cc(C#N)c3)c2F)c(Cl)c1 [ELSULFAVIRINE] has a half-life [10] of 2.6 h, a Tmax [11] of 1.9 h and a Tmax [12] of 1.1 h. The Cmax [13] was 7.5 ng/mL, the half-life [14] was 1.7 h and the Cmax [15] was 10.8 ng/mL.

In the case of C=C(C)[C@@H]1CC[C@]2(NCCN3CCS(=O)(=O)CC3)CC[C@]3(C)[C@H](CC[C@@H]4[C@@]5(C)CC=C(C6=CC[C@@](CF)(C(=O)O)CC6)C(C)(C)[C@@H]5CC[C@]43C)[C@@H]12 [FIPRAVIRIMAT], the EC50 [16] is reported as 9 nM and the EC50 [17] is reported as 3.5 nM.

Cc1cc(/C=C/C#N)cc(C)c1Nc1ccnc(Nc2ccc(C#N)cc2)n1 [RILPIVIRINE] showed an IC50 [18] of less than 2 nM and an IC50 [19] of 0.24 nM.

Source: ChEMBL document CHEMBL6083187, “Current status of the small molecule anti-HIV drugs in the pipeline or recently approved” (Bioorg Med Chem, 2024)
